Here are results for 17 compounds from ChEMBL document CHEMBL3877242, “Synthesis of novel 25-hydroxyprotopanaxadiol derivatives by methylation and methoxycarbonylation using dimethyl carbonate as a environment-friendly reagent and their anti-tumor evaluation” (Bioorg Med Chem Lett, 2016).

Structures are written as SMILES.

The nature of series [1]: Cytotoxicity against human HeLa cells assessed as reduction in cell viability after 48 hrs by MTT assay. It is filed as functional, cell-based.
Series [2] can be described thus: Cytotoxicity against human IOSE-144 cells assessed as reduction in cell viability after 48 hrs by MTT assay. It is filed as toxicity, cell-based.
Series [3] deals with DU-145. In words: (§1) Cytotoxicity against human DU145 cells assessed as reduction in cell viability after 48 hrs by MTT assay. Type of series: functional, cell-based.
Series [4] in a line: as §1. Type of series: functional, cell-based. As to conditions: DU-145, 48 h.
Series [5] can be described thus: Cytotoxicity against human HeLa cells assessed as cell growth inhibition at 30 uM after 48 hrs by MTT assay. The conditions noted are these: read-out: GI. Type of series: functional.
Series [6] is described as follows: Cytotoxicity against human DU145 cells assessed as viable cells at 30 uM after 48 hrs by MTT assay. Type of series: functional. As to conditions: DU-145, 48 h, read-out: GI. On the technique in general: Tetrazolium assays rely on reduction of a dye to a coloured formazan, in cell work by metabolically active cells.
In series [7] the test system is DU-145. In words: Potency index, ratio of 5-FU IC50 to compound IC50 for human DU145 cells. It is filed as functional.

`COC(=O)O[C@H]1CC[C@]2(C)[C@H]3C[C@@H](OC(=O)OC)[C@@H]4[C@@H](/C(C)=C/CCC(C)(C)OC(=O)OC)CC[C@@]4(C)[C@]3(C)CC[C@H]2C1(C)C`: the IC50 (commonly the concentration at which inhibition is half-maximal) in series [1] was over 100 µM; in series [4], 80.3 µM. The IC50 at 48 h in series [2] was over 100 µM. Moreover, the “growth inhibition (GI)” value in the series on DU-145 [3] is “Dose-dependent effect”.
As to `COC(=O)O[C@H]1CC[C@]2(C)[C@H]3C[C@@H](O)[C@@H]4[C@@H]([C@](C)(O)CCCC(C)(C)O)CC[C@@]4(C)[C@]3(C)CC[C@H]2C1(C)C`, the results for the IC50 in series [1] and in series [4] were 59.9 µM and 87.1 µM, respectively. Moreover, the IC50 at 48 h in series [2] was over 100 µM. In addition, the “growth inhibition (GI)” value with DU-145 [3] was “Dose-dependent effect”.
For `COC(=O)O[C@H]1CC[C@]2(C)[C@H]3C[C@@H](O)[C@@H]4[C@@H]([C@@](C)(CCC=C(C)C)OC)CC[C@@]4(C)[C@]3(C)CC[C@H]2C1(C)C`, the IC50 was determined as 30.2 µM in series [1] and 41.1 µM in series [4]. For the same compound, the IC50 at 48 h in series [2] is over 100 µM. Moreover, the “growth inhibition (GI)” value in the series with DU-145 [3] was “Dose-dependent effect”.
Regarding `COC(C)(C)CCC[C@@](C)(O)[C@H]1CC[C@]2(C)[C@@H]1[C@H](O)C[C@@H]1[C@@]3(C)CC[C@H](O)C(C)(C)[C@@H]3CC[C@]12C`, the results for the IC50 in series [1] and in series [4] were 22.5 µM and 5.4 µM, respectively. Besides, the IC50 at 48 h in series [2] is over 100 µM.
On to `CC(C)(O)CCC[C@@](C)(O)[C@H]1CC[C@]2(C)[C@@H]1[C@H](O)C[C@@H]1[C@@]3(C)CC[C@H](O)C(C)(C)[C@@H]3CC[C@]12C`, for which the results for the IC50 in series [1] and in series [4] were 46.4 µM and 57.9 µM, respectively. Besides, the IC50 at 48 h in series [2] is over 100 µM.
With `COC(=O)O[C@H]1CC[C@]2(C)[C@H]3C[C@@H](O)[C@@H]4[C@@H]([C@@](C)(CCCC(C)(C)O)OC)CC[C@@]4(C)[C@]3(C)CC[C@H]2C1(C)C`, the inhibition of growth at 30 µM in series [5] and in series [6] was 18.6% in each case. Besides, the IC50 in series [1] turned out to be 7.1 µM; in series [4], 3.9 µM. The IC50 at 48 h in series [2] is over 100 µM. In addition, in the series with DU-145 [3], the “growth inhibition (GI)” value was “Dose-dependent effect”.
For the compound `CO[C@H]1CC[C@]2(C)[C@H]3C[C@@H](OC)[C@@H]4[C@@H]([C@@](C)(CCCC(C)(C)OC)OC)CC[C@@]4(C)[C@]3(C)CC[C@H]2C1(C)C`, the results for the IC50 in series [1] and in series [4] were 21.8 µM and 18.7 µM, respectively. For the same compound, in series [2], the IC50 at 48 h was over 100 µM. Also, in the series on DU-145 [3], the “growth inhibition (GI)” value is “Dose-dependent effect”.
For `O=c1[nH]cc(F)c(=O)[nH]1` [FLUOROURACIL], the IC50 in series [1] was 28.2 µM; in series [4], 26.1 µM. The IC50 at 48 h in series [2] turned out to be 36.1 µM.
For `COC(=O)O[C@H]1CC[C@]2(C)[C@H]3C[C@@H](O)[C@@H]4[C@@H]([C@@](C)(CCCC(C)(C)OC(=O)OC)OC)CC[C@@]4(C)[C@]3(C)CC[C@H]2C1(C)C`, the figures for the IC50 in series [1] and in series [4] were 38.2 µM and 32.6 µM, respectively. Further, the IC50 at 48 h in series [2] was over 100 µM. Further, the “growth inhibition (GI)” value in the series on DU-145 [3] was “Dose-dependent effect”.
For `CO[C@H]1CC[C@]2(C)[C@H]3C[C@@H](OC)[C@@H]4[C@@H](/C(C)=C/CCC(C)(C)O)CC[C@@]4(C)[C@]3(C)CC[C@H]2C1(C)C`, the values for the IC50 in series [1] and in series [4] were 1.2 µM and 12.1 µM, respectively. Besides, in series [2], the IC50 at 48 h was over 100 µM. Moreover, in the series on DU-145 [3], the “growth inhibition (GI)” value was “Dose-dependent effect”.
With `COC(=O)O[C@H]1CC[C@]2(C)[C@H]3C[C@@H](O)[C@@H]4[C@@H](/C(C)=C/CCC(C)(C)O)CC[C@@]4(C)[C@]3(C)CC[C@H]2C1(C)C`, the inhibition of growth at 30 µM in series [5] and in series [6] was 19.7% each time. Also, the IC50 in series [1] stood at 15.9 µM; in series [4], 10.9 µM. Also, in series [2], the IC50 at 48 h was over 100 µM. Moreover, the “growth inhibition (GI)” value in the series on DU-145 [3] was “Dose-dependent effect”.
As to `COC(=O)O[C@H]1CC[C@]2(C)[C@H]3C[C@@H](O)[C@@H]4[C@@H]([C@](C)(O)CCCC(C)(C)OC(=O)OC)CC[C@@]4(C)[C@]3(C)CC[C@H]2C1(C)C`, the IC50 was found to be 34.6 µM in series [1] and 29.2 µM in series [4]. Also, the IC50 at 48 h in series [2] is over 100 µM. In addition, in the series with DU-145 [3], the “growth inhibition (GI)” value was “Dose-dependent effect”.
Take `COC(=O)O[C@H]1CC[C@]2(C)[C@H]3C[C@@H](O)[C@@H]4[C@@H]([C@](C)(O)CCC=C(C)C)CC[C@@]4(C)[C@]3(C)CC[C@H]2C1(C)C`: the inhibition of growth at 30 µM in series [5] and in series [6] was 38.4% throughout. In addition, the “Ratio IC50” value in the series on DU-145 [7] was 20 - 22. In addition, the IC50 is 10.4 µM in series [1] and 1.2 µM in series [4]. For the same compound, the IC50 at 48 h in series [2] was over 100 µM. Besides, in the series on DU-145 [3], the “growth inhibition (GI)” value was “Dose-dependent effect”.
As to `CO[C@H]1CC[C@]2(C)[C@H]3C[C@@H](O)[C@@H]4[C@@H]([C@@](C)(CCCC(C)(C)O)OC)CC[C@@]4(C)[C@]3(C)CC[C@H]2C1(C)C`, the inhibition of growth at 30 µM in series [5] and in series [6] was 32.5% in each case. In addition, the IC50 in series [1] turned out to be 6.7 µM; in series [4] it was 5.6 µM. The IC50 at 48 h in series [2] was over 100 µM. For the same compound, in the series on DU-145 [3], the “growth inhibition (GI)” value was “Dose-dependent effect”.
Regarding `CO[C@](C)(CCC=C(C)C)[C@H]1CC[C@]2(C)[C@@H]1[C@H](O)C[C@@H]1[C@@]3(C)CC[C@H](O)C(C)(C)[C@@H]3CC[C@]12C`, the inhibition of growth at 30 µM in series [5] and in series [6] was 20.6% throughout. The “Ratio IC50” value in the series on DU-145 [7] was 20 - 22. In addition, the IC50 in series [1] came out at 1.1 µM; in series [4] it was 2.6 µM. Also, in series [2], the IC50 at 48 h is over 100 µM. For the same compound, the “growth inhibition (GI)” value with DU-145 [3] is “Dose-dependent effect”.
With `COC(C)(C)CC/C=C(\C)[C@H]1CC[C@]2(C)[C@@H]1[C@H](O)C[C@@H]1[C@@]3(C)CC[C@H](O)C(C)(C)[C@@H]3CC[C@]12C`, the inhibition of growth at 30 µM in series [5] and in series [6] was 20.4% each time. Moreover, the IC50 in series [1] was 1.3 µM; in series [4], 3.2 µM. For the same compound, in series [2], the IC50 at 48 h was over 100 µM. For the same compound, the “growth inhibition (GI)” value in the series on DU-145 [3] was “Dose-dependent effect”.
Turning to `COC(=O)OC(C)(C)CCC[C@@](C)(O)[C@H]1CC[C@]2(C)[C@@H]1[C@H](O)C[C@@H]1[C@@]3(C)CC[C@H](O)C(C)(C)[C@@H]3CC[C@]12C`, the IC50 in series [1] came out at 26.9 µM; in series [4], 27.2 µM. The IC50 at 48 h in series [2] was over 100 µM. In addition, in the series with DU-145 [3], the “growth inhibition (GI)” value was “Dose-dependent effect”.
